Experiments:
[1] = target: T1, KBTBD4^WT with CoREST1^NT2-HDAC2 (ternary complex) (Homo sapiens, UniProt Q92769+Q9NVX7); assay: microscale thermophoresis, labelled KBTBD4 WT; type: binding
T1 construct: FLAG-KBTBD4 17-534 (near full length, dimer, N-terminal 3xFLAG); untagged full-length HDAC2 1-488 co-expressed with CoREST1 ELM2-SANT1 71-259 carrying C-terminal FLAG/10xHis; Expi293F; purified; complexes 2:1:1, also 2:1 and 2:2 KBTBD4:HDAC2 by cryo-EM; with REST corepressor 1

[2] = target: FLAG-KBTBD4^R313PRR (17-536 a.a.), full-length dimer (human (from the printed UniProt entry)) (UniProt Q9NVX7); assay: MST; unlabelled partner titrated into 40 nM RED-NHS-labelled KBTBD4 variant, no compound; 50 mM HEPES pH 7.5, 150 mM NaCl, 10% glycerol, 5 mM MgCl2, 0.05% Tween-20, 0.1 mM TCEP; 25 °C; apparent KD; triplicates
CoREST1^NT2-HDAC2 = target: T2, CoREST1^NT2-HDAC2 (Homo sapiens, UniProt Q92769); assay: microscale thermophoresis, competition with labelled KBTBD4 R313PRR; settings: blocks KBTBD4 R313PRR binding to HDAC2; HDAC2 catalytic site; pH 7.5, 25 °C
T2 construct: untagged full-length HDAC2 1-488 co-expressed with CoREST1 ELM2-SANT1 71-259 (C-terminal FLAG/10xHis) in Expi293F, purified; with REST corepressor 1

[3] = target: FLAG-KBTBD4^R313PRR (17-536 a.a.), full-length dimer (human (from the printed UniProt entry)), Q9NVX7; assay: cryo-EM structure; 4 µM KBTBD4^R313PRR mixed with 4 µM CoREST1^NT2-HDAC2, 50 mM HEPES pH 7.5, 150 mM NaCl, 10% glycerol, 5 mM MgCl2, 0.5 mM TCEP, 15 min on ice, not crosslinked; settings: remark: other sources report otherwise
[4] = target: FLAG-KBTBD4^WT (17-534 a.a.) (human (from the printed UniProt entry)), Q9NVX7; assay: cryo-EM structure; 4 µM KBTBD4^WT, 4 µM CoREST1^NT2-HDAC2 and 40 µM UM171, 50 mM HEPES pH 7.5, 150 mM NaCl, 5% glycerol, 5 mM MgCl2, 0.5 mM TCEP, crosslinked with BS3; settings: remark: other sources report otherwise

Work on `Cn1cc(-c2ccc3c(c2)[nH]c2nc(Cc4ccccc4)nc(NC4CCC(N)CC4)c23)cn1` (stereo not drawn) [compound 2, compound (2)] yielded a Kd [1] of 26000 nM.

Molecule “CoREST1^NT2-HDAC2 complex (recombinant, co-expressed) (from UniProt Q92769-1 1-488)” has a Kd [2] of 750 nM.

With `CC(=O)Nc1ccc(C(=O)Nc2cc(-c3cccs3)ccc2N)cc1` [BRD6929] the “microscale thermophoresis, competition with labelled KBTBD4 R313PRR” value (CoREST1^NT2-HDAC2) was “the addition of BRD6929 abrograted all KBTBD4^R313PRR-HDAC2 binding in the MST assay”.

Work on `COC(=O)c1ccc2c(c1)[nH]c1nc(Cc3ccccc3)nc(NCCCN3CCCC3)c12` [compound 13, S234984] yielded a Kd [1] of 2300 nM.

B1: FLAG-KBTBD4^R313PRR (17-536 a.a.), full-length dimer, Q9NVX7-2 17-534 (natural protein)
chain: MESPEEPGASMDENYFVNYTFKDRSHSGRVAQGIMKLCLEEELFADVTISVEGREFQLHRLVLSAQSCFFRSMFTSNLKEAHNRVIVLQDVSESVFQLLVDYIYHGTVKLRAEELQEIYEVSDMYQLTSLFEECSRFLARTVQVGNCLQVMWLADRHSDPELYTAAKHCAKTHLAQLQNTEEFLHLPHRLLTDIISDGVPCSQNPTEAIEAWINFNKEEREAFAESLRTSLKEIGENVHIYLIGKESSRTHSLAVSLHCAEDDSISVSGQNSLCHQITAACKHGGDLYVVGGSIPRPRRMWKCNNATVDWEWCAPLPRDRLQHTLVSVPGKDAIYSLGGKTLQDTLSNAVIYYRVGDNVWTETTQLEVAVSGAAGANLNGIIYLLGGEENDLDFFTKPSRLIQCFDTETDKCHVKPYVLPFAGRMHAAVHKDLVFIVAEGDSLVCYNPLLDSFTRLCLPEAWSSAPSLWKIASCNGSIYVFRDRYKKGDANTYKLDPATSAVTVTRGIKVLLTNLQFVLA
modifications: here or on the partner: RED-NHS 2nd generation fluorescent label, in the MST experiments only; RED-NHS 2nd generation fluorescent label, in the MST experiments only
Molecule B1 has a stoichiometry N [3] of 2.

B2: FLAG-KBTBD4^WT (17-534 a.a.), Q9NVX7-2 17-534 (natural protein)
chain: MESPEEPGASMDENYFVNYTFKDRSHSGRVAQGIMKLCLEEELFADVTISVEGREFQLHRLVLSAQSCFFRSMFTSNLKEAHNRVIVLQDVSESVFQLLVDYIYHGTVKLRAEELQEIYEVSDMYQLTSLFEECSRFLARTVQVGNCLQVMWLADRHSDPELYTAAKHCAKTHLAQLQNTEEFLHLPHRLLTDIISDGVPCSQNPTEAIEAWINFNKEEREAFAESLRTSLKEIGENVHIYLIGKESSRTHSLAVSLHCAEDDSISVSGQNSLCHQITAACKHGGDLYVVGGSIPRRMWKCNNATVDWEWCAPLPRDRLQHTLVSVPGKDAIYSLGGKTLQDTLSNAVIYYRVGDNVWTETTQLEVAVSGAAGANLNGIIYLLGGEENDLDFFTKPSRLIQCFDTETDKCHVKPYVLPFAGRMHAAVHKDLVFIVAEGDSLVCYNPLLDSFTRLCLPEAWSSAPSLWKIASCNGSIYVFRDRYKKGDANTYKLDPATSAVTVTRGIKVLLTNLQFVLA
modifications: here or on the partner: RED-NHS 2nd generation fluorescent label, in the MST experiments only; RED-NHS 2nd generation fluorescent label, in the MST experiments only
With B2 the stoichiometry N [4] was 2.
